Structures are written as SMILES. Where a name gives a salt, the structure may show the parent alone.

In one series the test system is 11βHSD1 in the eyes. To be noted: healthy volunteers, after seven days of treatment; cited from earlier work.

For the compound `CONC(=O)[C@]12CC3CC(C1)[C@H](NC(=O)N1CCN(c4ccc(N5CCN(S(=O)(=O)C6CC6)CC5)cn4)c4ccccc41)C(C3)C2`, the melting point (usually the temperature of the solid-liquid transition) is 125 to 163 °C.

For `CC(C)(C)N1CCN(c2ccc(N3CCN(C(=O)N[C@H]4C5CC6CC4C[C@@](C(O)C(F)(F)F)(C6)C5)c4ccccc43)nc2)CC1` (stereo partly drawn), the melting point was in the range of 192 to 196 °C. The compound `CC(C)(C)N1CCN(c2ccc(N3CCN(C(=O)N[C@H]4C5CC6CC4C[C@@](NS(C)(=O)=O)(C6)C5)c4ccccc43)nc2)CC1` came in with a melting point of 165 °C. Still for that read-out and setting: next, `CC(C)(C)N1CCN(c2ccc(N3CCN(C(=O)N[C@H]4C5CC6CC4C[C@@](Cc4nn[nH]n4)(C6)C5)c4ccccc43)nc2)CC1`: 160 to 170 °C. As for `NC(=O)C[C@]12CC3CC(C1)[C@H](NC(=O)N1CCN(c4ccc(N5CCN(S(=O)(=O)C6CC6)CC5)cn4)c4ccccc41)C(C3)C2`, the melting point fell in the range of 120 to 135 °C. For the compound `CC1(C)[C@@H](OC(=O)CCC(=O)O)CC[C@]2(C)[C@H]3C(=O)C=C4[C@@H]5C[C@@](C)(C(=O)O)CC[C@]5(C)CC[C@@]4(C)[C@]3(C)CC[C@@H]12` [carbenoxolone], the “IOP is reduced by” value in the series on 11βHSD1 in the eyes was 18%. `CC(C)(C)N1CCN(c2ccc(N3CCN(C(=O)N[C@H]4C5CC6CC4C[C@@](CNS(C)(=O)=O)(C6)C5)c4ccccc43)nc2)CC1` (as salt: hydrochloride) gave a melting point of 252 °C. Regarding `Cc1noc([C@]23CC4CC(C2)[C@H](NC(=O)N2CCN(c5ccc(N6CCN(S(=O)(=O)C7CC7)CC6)cn5)c5ccccc52)C(C4)C3)n1`, the melting point came to 135 °C.

Turning to `NC[C@]12CC3CC(C1)[C@H](NC(=O)N1CCN(c4ccc(N5CCN(S(=O)(=O)C6CC6)CC5)cn4)c4ccccc41)C(C3)C2` (as salt: hydrochloride), the melting point was 197 °C.

The values are drawn from patent publication US8536173B2, “Tetrahydroquinoxaline urea derivatives as modulators of 11-B-hydroxysteroid dehydrogenase type I” (SANOFI, priority 2009, dated 2013).
